The source of these data is ChEMBL document CHEMBL1681705, “Optimisation of ITK inhibitors through successive iterative design cycles” (Bioorg Med Chem Lett, 2011).

As a reminder, the inhibition is how much of the control response was suppressed. A high value points to a strong effect.

Structures are written as SMILES.

The target in experiment [1] is T1, Ephrin type-B receptor 1 (Homo sapiens) (UniProt P54762).
T1 sequence (whole entry): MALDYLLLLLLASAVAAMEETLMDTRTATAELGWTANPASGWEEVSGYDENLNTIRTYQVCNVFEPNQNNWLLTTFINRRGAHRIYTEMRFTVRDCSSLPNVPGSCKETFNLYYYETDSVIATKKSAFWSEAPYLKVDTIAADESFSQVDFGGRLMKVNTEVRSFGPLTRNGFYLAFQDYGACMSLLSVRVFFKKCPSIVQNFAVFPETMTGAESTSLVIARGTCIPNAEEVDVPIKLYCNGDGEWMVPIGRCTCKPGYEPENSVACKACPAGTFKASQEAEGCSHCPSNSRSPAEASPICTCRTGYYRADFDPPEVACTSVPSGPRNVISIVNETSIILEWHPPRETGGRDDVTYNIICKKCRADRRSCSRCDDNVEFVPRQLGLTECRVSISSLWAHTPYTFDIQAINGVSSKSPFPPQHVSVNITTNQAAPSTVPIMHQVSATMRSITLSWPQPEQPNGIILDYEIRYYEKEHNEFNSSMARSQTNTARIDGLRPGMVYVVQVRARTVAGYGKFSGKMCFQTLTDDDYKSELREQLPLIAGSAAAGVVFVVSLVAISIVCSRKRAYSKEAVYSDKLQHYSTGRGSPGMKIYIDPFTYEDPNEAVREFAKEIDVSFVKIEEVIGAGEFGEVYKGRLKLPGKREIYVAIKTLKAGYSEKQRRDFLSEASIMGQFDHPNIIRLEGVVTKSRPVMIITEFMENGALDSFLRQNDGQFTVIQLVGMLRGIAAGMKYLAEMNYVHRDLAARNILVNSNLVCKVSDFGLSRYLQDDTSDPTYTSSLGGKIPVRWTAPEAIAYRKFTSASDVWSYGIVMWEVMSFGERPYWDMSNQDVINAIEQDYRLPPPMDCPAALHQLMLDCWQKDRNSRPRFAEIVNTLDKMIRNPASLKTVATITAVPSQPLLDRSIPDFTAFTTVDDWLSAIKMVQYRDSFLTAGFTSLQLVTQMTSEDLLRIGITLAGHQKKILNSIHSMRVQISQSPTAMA
The experiment is described as follows: Inhibition of EphB1 at 0.1 uM; values are per cent of control.

The target in experiment [2] is Cyclin-dependent kinase 7/ cyclin H (Homo sapiens) (UniProt P51946+P50613). The experiment is described as follows: Inhibition of CDK7/cyclin H/MAT1 at 1 uM; values are per cent of control.
In experiment [3] the target is Fibroblast growth factor receptor 2 (Homo sapiens) (UniProt P21802). The experiment is described as follows: Inhibition of FGFR2 at 1 uM; values are per cent of control.
Chain of Fibroblast growth factor receptor 2 (Homo sapiens) (P21802 22-821 limits assumed): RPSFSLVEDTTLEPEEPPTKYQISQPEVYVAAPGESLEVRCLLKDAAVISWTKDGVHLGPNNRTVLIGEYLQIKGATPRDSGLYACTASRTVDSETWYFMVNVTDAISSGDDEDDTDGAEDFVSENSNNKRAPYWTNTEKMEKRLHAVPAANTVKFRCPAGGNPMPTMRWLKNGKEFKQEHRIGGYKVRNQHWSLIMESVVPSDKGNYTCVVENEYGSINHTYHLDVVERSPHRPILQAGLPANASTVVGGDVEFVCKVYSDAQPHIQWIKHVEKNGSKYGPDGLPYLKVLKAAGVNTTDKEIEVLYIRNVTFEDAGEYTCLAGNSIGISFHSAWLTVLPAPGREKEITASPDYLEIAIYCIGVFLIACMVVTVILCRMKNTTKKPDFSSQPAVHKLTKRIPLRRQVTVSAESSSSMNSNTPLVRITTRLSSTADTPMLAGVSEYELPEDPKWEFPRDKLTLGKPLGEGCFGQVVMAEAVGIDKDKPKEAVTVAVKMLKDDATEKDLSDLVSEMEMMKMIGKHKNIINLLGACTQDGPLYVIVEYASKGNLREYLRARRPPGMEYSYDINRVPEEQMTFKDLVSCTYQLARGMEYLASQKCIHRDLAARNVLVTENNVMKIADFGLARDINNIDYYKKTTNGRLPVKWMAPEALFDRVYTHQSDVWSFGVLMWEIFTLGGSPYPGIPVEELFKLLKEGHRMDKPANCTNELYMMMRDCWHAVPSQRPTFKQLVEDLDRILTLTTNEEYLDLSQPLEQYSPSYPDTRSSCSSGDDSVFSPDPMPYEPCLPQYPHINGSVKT
Experiment [4] addresses T2, Serine/threonine-protein kinase Sgk1 (Homo sapiens) (UniProt O00141).
T2 sequence (whole entry): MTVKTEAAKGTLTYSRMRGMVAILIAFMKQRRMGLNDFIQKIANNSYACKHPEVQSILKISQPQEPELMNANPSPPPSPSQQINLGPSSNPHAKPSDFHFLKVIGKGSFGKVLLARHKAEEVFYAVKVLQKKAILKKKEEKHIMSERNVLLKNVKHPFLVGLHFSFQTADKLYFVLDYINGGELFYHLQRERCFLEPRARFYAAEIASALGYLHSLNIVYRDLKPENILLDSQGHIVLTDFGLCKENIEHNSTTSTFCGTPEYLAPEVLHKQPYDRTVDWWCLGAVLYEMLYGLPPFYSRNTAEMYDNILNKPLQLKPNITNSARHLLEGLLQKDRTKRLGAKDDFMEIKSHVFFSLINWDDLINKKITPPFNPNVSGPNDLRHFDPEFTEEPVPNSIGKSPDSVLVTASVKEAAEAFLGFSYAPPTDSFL
The experiment is described as follows: Inhibition of SGK at 1 uM; values are per cent of control.

Experiment [5] concerns the target T3, Mitogen-activated protein kinase kinase kinase 7 (Homo sapiens) (UniProt O43318).
T3 sequence (whole entry): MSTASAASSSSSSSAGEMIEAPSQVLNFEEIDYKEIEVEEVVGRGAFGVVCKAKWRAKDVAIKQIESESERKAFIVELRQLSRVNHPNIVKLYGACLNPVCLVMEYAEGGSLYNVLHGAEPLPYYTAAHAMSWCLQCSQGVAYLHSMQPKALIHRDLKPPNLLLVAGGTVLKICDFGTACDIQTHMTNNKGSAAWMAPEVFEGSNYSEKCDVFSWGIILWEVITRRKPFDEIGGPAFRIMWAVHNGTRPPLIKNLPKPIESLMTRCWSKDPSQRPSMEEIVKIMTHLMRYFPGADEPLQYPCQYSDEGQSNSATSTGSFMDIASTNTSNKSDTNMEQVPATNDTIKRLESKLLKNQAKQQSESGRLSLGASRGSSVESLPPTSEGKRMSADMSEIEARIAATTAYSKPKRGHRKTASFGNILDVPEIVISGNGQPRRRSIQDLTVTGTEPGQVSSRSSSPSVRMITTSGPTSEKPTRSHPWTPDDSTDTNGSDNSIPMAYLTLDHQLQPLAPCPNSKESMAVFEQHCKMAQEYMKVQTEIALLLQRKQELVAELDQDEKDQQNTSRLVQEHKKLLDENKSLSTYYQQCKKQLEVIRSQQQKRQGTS
The experiment is described as follows: Inhibition of TAK1 at 1 uM; values are per cent of control.

Experiment [6] addresses T4, Serine/threonine-protein kinase STK11 (Homo sapiens) (UniProt Q15831).
T4 sequence (whole entry): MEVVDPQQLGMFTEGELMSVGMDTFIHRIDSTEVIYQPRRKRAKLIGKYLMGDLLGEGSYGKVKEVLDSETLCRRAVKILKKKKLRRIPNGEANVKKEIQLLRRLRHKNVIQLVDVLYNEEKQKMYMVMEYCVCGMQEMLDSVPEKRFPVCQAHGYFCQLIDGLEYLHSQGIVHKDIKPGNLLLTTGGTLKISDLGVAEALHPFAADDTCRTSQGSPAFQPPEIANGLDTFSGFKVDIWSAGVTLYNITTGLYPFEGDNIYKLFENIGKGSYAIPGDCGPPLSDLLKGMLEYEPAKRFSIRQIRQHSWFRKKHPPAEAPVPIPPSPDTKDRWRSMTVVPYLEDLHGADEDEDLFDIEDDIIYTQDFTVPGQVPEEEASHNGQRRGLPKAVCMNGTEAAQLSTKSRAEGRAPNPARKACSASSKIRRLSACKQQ
The experiment is described as follows: Inhibition of LKB1 at 1 uM; values are per cent of control.

A short description of experiment [7]: Inhibition of JNK2a2 at 0.1 uM. Particulars: values are per cent of control.
The target in experiment [8] is Ribosomal protein S6 kinase beta-1 (Homo sapiens) (UniProt P23443). The experiment is described as follows: Inhibition of p70S6K at 1 uM.
Chain of Ribosomal protein S6 kinase beta-1 (Homo sapiens) (P23443 whole entry, looked up): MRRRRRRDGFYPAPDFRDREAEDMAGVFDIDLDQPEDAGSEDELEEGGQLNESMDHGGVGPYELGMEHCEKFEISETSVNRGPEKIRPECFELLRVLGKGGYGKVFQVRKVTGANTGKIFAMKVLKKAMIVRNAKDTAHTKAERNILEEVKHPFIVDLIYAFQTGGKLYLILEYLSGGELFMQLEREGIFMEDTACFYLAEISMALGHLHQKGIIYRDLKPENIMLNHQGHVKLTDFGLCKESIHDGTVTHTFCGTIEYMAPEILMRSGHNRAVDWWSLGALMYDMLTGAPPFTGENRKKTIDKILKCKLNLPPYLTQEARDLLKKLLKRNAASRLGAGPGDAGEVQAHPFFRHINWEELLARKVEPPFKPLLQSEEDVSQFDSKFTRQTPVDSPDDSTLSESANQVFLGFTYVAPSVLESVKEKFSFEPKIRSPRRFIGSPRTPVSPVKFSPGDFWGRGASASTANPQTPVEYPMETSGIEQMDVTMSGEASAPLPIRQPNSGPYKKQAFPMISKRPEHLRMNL
Experiment [9] deals with Cyclin-dependent kinase 5/CDK5 activator 1 (Homo sapiens) (UniProt Q00535+Q15078). Put plainly: Inhibition of CDK5/p35 at 1 uM; values are per cent of control.
Chain of Cyclin-dependent kinase 5/CDK5 activator 1 (Homo sapiens) (Q00535 whole entry): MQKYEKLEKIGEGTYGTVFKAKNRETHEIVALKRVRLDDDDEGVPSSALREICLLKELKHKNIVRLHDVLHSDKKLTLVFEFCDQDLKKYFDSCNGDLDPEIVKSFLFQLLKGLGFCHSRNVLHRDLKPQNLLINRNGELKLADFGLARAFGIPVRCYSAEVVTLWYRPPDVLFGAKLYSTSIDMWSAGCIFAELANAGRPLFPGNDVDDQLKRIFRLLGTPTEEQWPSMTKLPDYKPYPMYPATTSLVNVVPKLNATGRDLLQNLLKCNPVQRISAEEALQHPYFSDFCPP
Chain of Cyclin-dependent kinase 5/CDK5 activator 1 (Homo sapiens) (Q15078 99-307 partner limits assumed): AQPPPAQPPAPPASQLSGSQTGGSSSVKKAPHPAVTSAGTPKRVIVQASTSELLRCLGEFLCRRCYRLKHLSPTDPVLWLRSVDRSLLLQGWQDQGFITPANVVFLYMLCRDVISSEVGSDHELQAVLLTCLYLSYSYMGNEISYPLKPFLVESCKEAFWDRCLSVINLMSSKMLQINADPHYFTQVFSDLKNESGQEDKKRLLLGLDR

Consider `Cc1ccc2cc(-c3n[nH]c4ccc(NC5CCNC5)cc34)[nH]c2c1` (stereo not drawn), for which the residual activity was determined as 29% in [1]; 10% in experiment [2]; 1% in [3]; 32% in [4]; 9% in experiment [5]; 98% in experiment [6]. Moreover, the residual activity is 103% in experiment [7] and 2% in experiment [9]. Further, the inhibition in [8] stood at 16%.
`Cc1ccc2cc(-c3n[nH]c4ccc(NC5CCN(Cc6ccccc6)CC5)cc34)[nH]c2c1`: the residual activity in experiment [1] came out at 73%; in [2], 28%; in experiment [3], 4%; in experiment [4], 97%; in experiment [5], 35%; in [6], 101%. Moreover, the residual activity in experiment [7] came to 93%; in experiment [9], 0%. This molecule also showed an inhibition in [8] of 10%.
